Data set [1] concerns HepG2. The data set is described as follows: Cytotoxicity against human HepG2 cells assessed as reduction in cell viability at 100 umol after 48 hrs by MTS assay relative to control. The data set is classed as functional. On the technique in general: Tetrazolium dyes change colour on reduction, which living cells bring about.
Data set [2] is described as follows: Drug uptake in human HepG2 cells assessed as doxorubicin conjugates accumulation at 10 uM after 6 hrs by fluorescence assay. The data set is classed as ADME, cell-based. The settings on record: hepg2, 6 h.
Data set [3] is described as follows: Drug uptake in human HEK293 cells assessed as assessed as doxorubicin conjugates accumulation at 10 uM after 6 hrs by fluorescence assay. The data set is classed as ADME, cell-based. The settings on record: hek293, 6 h.
Data set [4] is described as follows: Drug localization in human HepG2 cell cytoplasm at assessed as doxorubicin conjugates accumulation 10 uM after 24 hrs by DAPI staining-based fluorescence microscopic analysis. The data set is classed as ADME. The conditions noted are these: hepg2, 24 h.
In data set [5] the test system is HepG2. The data set is described as follows: Cytotoxicity against human HepG2 cells assessed as cell viability up to 70 uM after 2 hrs by MTS assay. The data set is classed as functional, cell-based.
A short description of data set [6]: Drug localization in human HepG2 cell nucleus assessed as doxorubicin conjugates accumulation at 10 uM after 24 hrs by DAPI staining-based fluorescence microscopic analysis. The format is ADME. The conditions noted are these: hepg2, 24 h.
For data set [7], the system named is HepG2. Nature of the data set: Cytostatic activity against human HepG2 cells assessed as cell viability at 0.02 to 70 uM after 48 hrs by MTS assay. The format is functional, cell-based.
Data set [8] is described as follows: Drug uptake in human HEK293 cells assessed as doxorubicin conjugates accumulation at 10 uM after 24 hrs by fluorescence assay. The data set is classed as ADME, cell-based. The conditions noted are these: hek293, 24 h.

SMILES strings stand for the structures. Calls of active or inactive are those of the source. The rule behind the calls is not given here.

With `COc1cccc2c1C(=O)c1c(O)c3c(c(O)c1C2=O)C[C@@](O)(C(=O)CO)C[C@@H]3O[C@H]1C[C@H](NC(=O)CCCc2cn(CCO[C@@H]3O[C@H](CO)[C@H](O)[C@H](O)[C@H]3NC(C)=O)nn2)[C@H](O)[C@H](C)O1`, in the data set on HepG2 [1], the Activity is recorded as 20 - 30%. Also, the Drug uptake entry in data set [2], in data set [3] and in data set [4] was “Active” each time. In addition, in the data set on HepG2 [5], the result was inactive.

For `COc1cccc2c1C(=O)c1c(O)c3c(c(O)c1C2=O)C[C@@](O)(C(=O)CO)C[C@@H]3O[C@H]1C[C@H](N)[C@H](O)[C@H](C)O1.Cl` [DOXORUBICIN HYDROCHLORIDE], the Drug uptake result in data set [2] and in data set [6] was “Not Active” each time. Moreover, the outcome in the data set with HepG2 [7] was Active. Besides, in the data set on HepG2 [5], the outcome was inactive.

Take `C=CCO[C@@H]1O[C@H](Cn2cc(CCCC(=O)N[C@H]3C[C@H](O[C@H]4C[C@](O)(C(=O)CO)Cc5c(O)c6c(c(O)c54)C(=O)c4c(OC)cccc4C6=O)O[C@@H](C)[C@H]3O)nn2)[C@H](O)[C@H](O)[C@H]1NC(C)=O`: the Activity in the data set with HepG2 [1] is reported as 20 - 30%. For the same compound, the Drug uptake result in data set [2], in data set [3] and in data set [4] was “Active” throughout. The outcome in the data set on HepG2 [5] was inactive.

With `COc1cccc2c1C(=O)c1c(O)c3c(c(O)c1C2=O)C[C@@](O)(C(=O)CO)C[C@@H]3O[C@H]1C[C@H](NC(=O)CCCc2cn([C@@H]3O[C@H](CO)[C@H](O)[C@H](O)[C@H]3NC(C)=O)nn2)[C@H](O)[C@H](C)O1`, the Activity in the data set on HepG2 [1] was 20 - 30%. Further, the Drug uptake entry in data set [2], in data set [3], in data set [8] and in data set [4] was “Active” throughout. Further, in the data set with HepG2 [5], the outcome was inactive.
